Results from patent publication US6812243B2, “Indole derivatives and their use for the treatment of malignant and other diseases based on pathological proliferation” (Zentaris AG, priority 1998, dated 2004).

Work on `COc1ccc2c(c1)cc(C(OC)(c1ccccc1)c1cc3cc(OC)ccc3n1S(=O)(=O)c1ccccc1)n2S(=O)(=O)c1ccccc1` [Example 7, Di-(5-Methyloxy-1-phenylsulphonylindol-2-yl)phenyl-methyloxymethane] yielded a melting point of 100 to 101 °C.
`CN(C)Cc1c(C(O)c2cc3ccccc3n2S(=O)(=O)c2ccccc2)n(S(=O)(=O)c2ccccc2)c2ccccc12` (centres unmarked) [Example 8, (3-Dimethylaminomethyl-1-phenylsulphonylindol-2-yl)(1-phenylsulphonylindol-2-yl)methan-1-ol] showed a melting point of 116 to 117 °C.
`COc1ccc2cc(C(O)c3cc4ccccc4n3S(=O)(=O)c3ccccc3)n(S(=O)(=O)c3ccccc3)c2c1` (centres unmarked) [Example 11, 6-Methoxy-1-phenylsulphonyl-1H-2-indolyl(1-phenylsulphonyl-1H-2-indolyl)methanol] showed a melting point of 180 °C.
Work on `COc1cccc2cc(C(O)c3cc4ccccc4n3S(=O)(=O)c3ccccc3)n(S(=O)(=O)c3ccccc3)c12` (centres unmarked) [Example 12, 7-Methoxy-1-phenylsulphonyl-1H-2-indolyl(1-phenylsulphonyl-1H-2-indolyl)methanol] yielded a melting point of 148 to 150 °C.
In the case of `COc1ccc2c(c1)cc(C(=O)c1cc3ccccc3n1S(=O)(=O)c1ccccc1)n2S(=O)(=O)c1ccccc1` [Example 17, (5-Methoxy-N-phenylsulphonylindol-2-yl)-(N-phenylsulphonylindol-2-yl)methan-1-one], the melting point was 205 °C.
With `COc1ccc2[nH]c(C(=O)c3cc4cc(OC)ccc4[nH]3)cc2c1` [Example 21, Bis(5-methoxyindol-2-yl)-1-methanone] the melting point was 202 to 204 °C.
`COc1ccc2[nH]c(C(=O)c3cc4ccccc4s3)cc2c1` [Example 28, Benzo[b]thiophen-2-yl(5-methoxy-1H-2-indolyl)-1-methanone] showed a melting point of 200 °C.
For `COc1cccc2cc(C(=O)c3cc4ccccc4n3S(=O)(=O)c3ccccc3)n(S(=O)(=O)c3ccccc3)c12` [Example 29, 7-Methoxy-1-phenylsulphonyl-1H-2-indolyl(1-phenyl-sulphonyl-1H-2-indolyl)methanone], the melting point was 129 to 130 °C.
Work on `COc1cccc2cc(C(=O)c3cc4ccccc4[nH]3)[nH]c12` [Example 30, 7-Methoxy-1H-2-indolyl(1H-2-indolyl)methanone] yielded a melting point of 151 °C.
Compound `COc1ccc2cc(C(=O)c3cc4ccccc4n3S(=O)(=O)c3ccccc3)n(S(=O)(=O)c3ccccc3)c2c1` [Example 31, 6-Methoxy-1-phenylsulphonyl-1H-2-indolyl(1-phenylsulphonyl-1H-2-indolyl)methanone] has a melting point of 184 to 186 °C.
`COc1ccc2cc(C(=O)c3cc4ccccc4[nH]3)[nH]c2c1` [Example 32, 6-Methoxy-1H-2-indolyl(1H-2-indolyl)methanone] gave a melting point of 184 to 186 °C.
`O=C(c1cc2ccccc2[nH]1)c1cc2cc(OCc3ccccc3)ccc2[nH]1` [Example 42, 5-Benzyloxy-1H-2-indolyl(1H-2-indolyl)methanone] gave a melting point of 199 to 201 °C.
`O=C(c1cc2ccccc2[nH]1)c1cc2cc(O)ccc2[nH]1` [Example 43, 5-Hydroxy-1H-2-indolyl(1H-2-indolyl)methanone] gave a melting point greater than 220 °C.
`CCOc1ccc2[nH]c(C(=O)c3cc4ccccc4[nH]3)cc2c1` [Example 44, 5-Ethoxy-1H-2-indolyl(1H-2-indolyl)methanone] showed a melting point of 168 to 169 °C.
`O=C(c1cc2ccccc2[nH]1)c1cc2cc(OCCCCI)ccc2[nH]1` [Example 47, 5-(4-Iodobutyloxy)-1H-2-indolyl(1H-2-indolyl)methanone] showed a melting point of 110 to 113 °C.
With `O=C(c1cc2ccccc2[nH]1)c1cc2cc(OCC3CCCCC3)ccc2[nH]1` [Example 49, 5-Cyclohexylmethyloxy-1H-2-indolyl(1H-2-indolyl)-methanone] the melting point was 185 °C (dec.).
`O=C(c1cc2ccccc2[nH]1)c1cc2cc(OCCCCCI)ccc2[nH]1` [Example 50, 5-(5-Iodopentyloxy)-1H-2-indolyl(1H-2-indolyl)methanone] showed a melting point of 127 to 130 °C.
With `CN(C)CC(=O)Oc1ccc2[nH]c(C(=O)c3cc4ccccc4[nH]3)cc2c1` [Example 56] the melting point was 215 to 217 °C.
In the case of `CCC(=O)Oc1ccc2[nH]c(C(=O)c3cc4ccccc4[nH]3)cc2c1` [Example 57], the melting point was greater than 230 °C.
`COc1ccc2c(c1)cc(Cc1cc3cc(OC)ccc3n1S(=O)(=O)c1ccccc1)n2S(=O)(=O)c1ccccc1` [Example 71, Bis(5-methoxy-N-phenylsulphonylindol-2-yl)methane] showed a melting point of 159 to 160 °C.
In the case of `COc1ccc2c(c1)cc(Cc1cc3ccccc3n1S(=O)(=O)c1ccccc1)n2S(=O)(=O)c1ccccc1` [Example 72, (5-Methoxy-N-phenylsulphonylindol-2-yl)-(N-phenyl-sulphonylindol-2-yl)methane], the melting point was 98 to 100 °C.
`COc1ccc2c(c1)cc(Cc1cc3cccc(OC)c3n1S(=O)(=O)c1ccccc1)n2S(=O)(=O)c1ccccc1` [Example 73, (5-Methoxy-N-phenylsulphonylindol-2-yl)-(7-methoxy-N-phenylsulphonylindol-2-yl)methane] gave a melting point of 168 to 170 °C.
With `COc1ccc2[nH]c(C(=O)c3cc4ccccc4[nH]3)cc2c1` [Example 75, (5-Methoxyindol-2-yl)-(indol-2-yl)methanone] the melting point was 112 °C.
In the case of `COc1ccc2[nH]c3c(c2c1)C1=C(C(=O)NC1=O)c1c([nH]c2ccccc12)C3` [Example 82, 1,2,3,8,9,10-Hexahydro-5-methoxyindolo[3′,2′:5,6]-pyrrolo[3′,4′:3,4]-cyclohepta[b]indole-1,3-dione], the melting point was greater than 350 °C.
In the case of `CN1C(=O)C2=C(C1=O)c1c([nH]c3ccccc13)CCc1[nH]c3ccccc3c12` [Example 84, 1,2,3,8,9,10,11-Heptahydro-2-methylindolo[3′,2′:5,6]-pyrrolo[3′,4′:3,4]-cycloocta[b]indole-1,3-dione], the melting point was greater than 350 °C.
`O=C1C2=C(C(=O)N1COCc1ccccc1)c1c([nH]c3ccccc13)Cc1[nH]c3ccccc3c12` [Example 85, 2-Benzyloxymethyl-1,2,3,8,9,10-hexahydroindolo-[3′,2′:5,6]-pyrrolo[3′,4′:3,4]-cyclohepta[b]indole-1,3-dione] gave a melting point greater than 350 °C.
With `CN(C)CCn1c2c(c3ccccc31)C1=C(C(=O)OC1=O)c1c([nH]c3ccccc13)C2` [Example 87, 3,8,9,10-Tetrahydro-8-[2-(N,N-dimethylamino)ethyl]-1H-indolo[3′,2′:5,6]furo[3′,4′:3,4]cyclohepta[b]indole-1,3-dione] the melting point was greater than 350 °C.
For `CN(C)CCn1c2c(c3ccccc31)C1=C(C(=O)N(COCc3ccccc3)C1=O)c1c([nH]c3ccccc13)C2` [Example 88, 2-Benzyloxymethyl-1,2,3,8,9,10-hexahydro-8-[2-(N,N-di-methylamino)ethyl]indolo[3′,2′:5,6]pyrrolo[3′,4′:3,4]-cyclohepta[b]indole-1,3-dione], the melting point was 164 to 165 °C.
With `CN(C)CCn1c2c(c3ccccc31)C1=C(C(=O)NC1=O)c1c([nH]c3ccccc13)C2` [Example 90, 1,2,3,8,9,10-Hexahydro-8-[2-(N,N-dimethylamino)ethyl]-indolo[3′,2′:5,6]pyrrolo[3′,4′:3,4]cyclohepta[b]indole-1,3-dione] the melting point was 213 to 214 °C.
`CN1C(=O)C(Br)=C(c2c(CCc3cc4ccccc4[nH]3)[nH]c3ccccc23)C1=O` [Example 91, 3-Bromo-4-(2-(2-(1H-2-indolyl)ethyl)-1H-3-indolyl)-1-methyl-2,5-dihydro-1H-pyrrole-2,5-dione] showed a melting point of 169 °C.
For `CN1C(=O)C(Br)=C(c2c(CCCCc3cc4ccccc4[nH]3)[nH]c3ccccc23)C1=O` [Example 92, 3-Bromo-4-(2-(4-(1H-2-indolyl)butyl)-1H-3-indolyl)-1-methyl-2,5-dihydro-1H-pyrrole-2,5-dione], the melting point was 165 °C (dec.).
In the case of `CN1C(=O)C(Br)=C(c2c(CCCCCc3cc4ccccc4[nH]3)[nH]c3ccccc23)C1=O` [Example 93, 3-Bromo-4-(2-(5-(1H-2-indolyl)pentyl)-1H-3-indolyl)-1-methyl-2,5-dihydro-1H-pyrrole-2,5-dione], the melting point was 125 °C (dec.).
Compound `O=C(c1c[nH]c2ccccc12)c1c[nH]c2ccccc12` [Example 94, Bis(indol-3-yl)methanone] has a melting point of 297 to 299 °C.
For `CN1C(=O)C(Br)=C(c2c(CCCCCc3[nH]c4ccccc4c3C3=C(Br)C(=O)N(C)C3=O)[nH]c3ccccc23)C1=O` [Example 112, 3-Bromo-4-(2-(5-(3-(4-bromo-1-methyl-2,5-dioxo-2,5-dihydro-1H-3-pyrrolyl)-1H-2-indolyl)pentyl)-1H-3-indolyl)-1-methyl-2,5-dihydro-1H-pyrrole-2,5-dione], the melting point was 137 °C (dec.).
Work on `O=C1NC(=O)C(c2c(CCCc3[nH]c4ccccc4c3C3=C(Br)C(=O)NC3=O)[nH]c3ccccc23)=C1Br` [Example 113, 3-Bromo-4-(2-(3-(3-(4-bromo-2,5-dioxo-2,5-dihydro-1H-3-pyrrolyl)-1H-2-indolyl)propyl)-1H-3-indolyl)-2,5-dihydro-1H-pyrrole-2,5-dione] yielded a melting point greater than 350 °C.
With `O=C1NC(=O)C(c2c(CCCCCc3[nH]c4ccccc4c3C3=C(Br)C(=O)NC3=O)[nH]c3ccccc23)=C1Br` [Example 114, 3-Bromo-4-(2-(5-(3-(4-bromo-2,5-dioxo-2,5-dihydro-1H-3-pyrrolyl)-1H-2-indolyl)pentyl)-1H-3-indolyl)-2,5-dihydro-1H-pyrrole-2,5-dione] the melting point was > 350 °C (dec.).
With `O=C1NC(=O)C(c2c(CCCCCCCCc3[nH]c4ccccc4c3C3=C(Br)C(=O)NC3=O)[nH]c3ccccc23)=C1Br` [Example 115, 3-Bromo-4-(2-(8-(3-(4-bromo-2,5-dioxo-2,5-dihydro-1H-3-pyrrolyl)-1H-2-indolyl)octyl)-1H-3-indolyl)-2,5-dihydro-1H-pyrrole-2,5-dione] the melting point was 180 °C (dec.).
`CN1C(=O)C(Br)=C(c2c(CCc3[nH]c4ccccc4c3C3=C(Br)C(=O)N(C)C3=O)[nH]c3ccccc23)C1=O` [Example 116, 3-Bromo-4-(2-(2-(3-(4-bromo-1-methyl-2,5-dioxo-2,5-dihydro-1H-3-pyrrolyl)-1H-2-indolyl)ethyl)-1H-3-indolyl)-1-methyl-2,5-dihydro-1H-pyrrole-2,5-dione] showed a melting point of 179 °C.
